Results published in patent US6537670B1, “Bis(alkyleneoxybenzophenone) ultraviolet light absorbers” (Cytec Technology Corp., priority 2000, dated 2003).

Legend:
[1] = Volatility of UV absorbers: Thermogravimetric Analysis (TGA) T-10% values; format: physicochemical; conditions: for T-10% (TGA, temperature required for 10% of the material to volatilize): Thermogravimetric Analysis
Source text: One approach that has been taken to reduce the loss of absorbers from polymeric substrates has been to increase their molecular weight, either by using an absorber with attached high molecular weight groups, or by adding a group which will bind two or more absorbing nuclei in the same molecule, thus increasing molecular weight. U.S. Pat. No. 4,278,589 provides an example of the former approach, and describes benzotriazoles with large groups attached at the 3- and 5-positions. Of the latter approach, benzophenones, benzotriazoles and other molecules have been dimerized to reduce volatility. U.S. Pat. Nos. 5,108,835 and 4,948,666 describe articles with capstock layers stabilized by 2-hydroxyphenylbenzotriazoles which are bridged by various groups. One structure encompassed by the description is a 2-hydroxyphenylbenzotriazole bridged by a methylene group in the 3-position. These materials have relatively low volatility, as measured by the high temperature required for 10% of the materials to volatilize during Thermogravimetric Analysis. This temperature, known as the TGA T-10% value, is approximately 365° C. for the methylenebis{(5-tert-octyl-2-hydroxyphenyl)benzotriazole} known commercially as LA-31, Mixxim BB-100 or Tinuvin 360 (supplied by Asahi Denka, Fairmount Chemical and Ciba Specialty Chemicals, respectively), versus a TGA T-10% value of 245° C. for the non-dimerized (5-tert-octyl-2-hydroxyphenyl)benzotriazole known commercially as CYASORB® UV-5411. Also described have been 2,4-dihydroxybenzophenones which are dimerized by attachment through the 4-oxygen by an ether bond to two carbons of an aliphatic group. Compounds of this type have been described in U.S. Pat. Nos. 3,580,927 and 3,666,713 and CZ Appl. 135,115, JP Sho 47-48888, JP Sho 44-26456 and GB 1, 296,240. Capstock articles stabilized by some of these compounds, and a method for preparing the same are described in U.S. Pat. Nos. 5,445,872 and 5,306,456. Descriptions of benzotriazoles and benzophenones bridged by attachment of other groups may be found in U.S. Pat. Nos. 5,589,529 and 4,859,726 (for benzotriazoles) and JP Sho 57-12643 (for benzophenones). Many of the compounds described above, while solving the problem of volatility, have other limitations, including low solubility and high initial color when processed into the plastic substrate.
Volatility of UV Absorbers
Thermogravimetric Analysis (TGA) T-10% Values

[2] = Weathering resistance of polycarbonate plaques, 12-Month Florida Data; conditions: for % Weathering Resistance: 0.35% additive in Lexan 121 PC, 12-Month Florida Data, [1-YI(additive)YI of Blank] × 100
Protocol: The performance of the additives was evaluated in comparison to the control (no stabilizer) by compounding into polycarbonate and studying the properties of the compounded plaques. Polycarbonate plaques were prepared by: (1) dry blending the additives at 0.35 weight % with GE Lexan 121-112 polycarbonate (2) extruding the blend in a Haake torque rheometer base using a 0.75 inch 25:1 single screw extruder −4 zone, single pass, at 50-65 RPM speed, with zone 1, zone 2, zone 3, and zone 4 temperatures at 265, 265, 270 and 275° C., respectively, (3) pulling through a water bath, (4) drying, (5) pelletizing, (6) redrying at 120° C. for 4-48 hours in a forced air oven, (7) injection molding in an Arburg ‘Allrounder’ hydraulic injection molder (2×2.5 0.100″ plaques). Temperatures used were as follows: nozzle, 275° C., nozzle side, 280° C., middle, 275° C., feed, 266° C., mold, 95° C. The plaques were irradiated in a Xenon Arc Weatherometer as described by ASTM G-26 Standard using Test Method B with alternate exposure to light and darkness and an intermittent exposure to water spray maintaining an atmosphere temperature of 63±3° C. and a relative humidity of 30±5% (Miami, Fla. conditions). Color (YI) was determined with a Macbeth Color Eye […] under Lab conditions with illuminate C, 2° observer, specular component excluded, and UV component included. Hydrolytic testing was performed by heating plaques with water at 120° C. for 6 hours in an All American Electric Pressure Sterilizer, Model No. 25×, measuring YI before and after treatment.
% Weathering Resistance of Plaques (0.35% Additive in Lexan® 121 PC)

[3] = Solubility of compounds in organic solvents; conditions: 25° C.
[4] = Capstock weathering: Delta YI after xenon-arc weatherometer exposure; conditions: 7% in Capstock PC-Lexan 105
Protocol: The performance of the compounds was evaluated in comparison to the control (no stabilizer) in a polycarbonate thin film laminated to an unstabilized polycarbonate plaque. The films were prepared by (1) dry blending the additives at 7 wt. % with Lexan 105 virgin flake and 0.1% Mark 2112 phosphite, (2) extruding the blend in a Haake torque rheometer base equipped with a 0.75 inch 25:1 single mixing screw extruder −4 zone, single pass at 55-65 rpm speed, with zone 1, zone 2, zone 3, and zone 4 temperatures at 246, 265, 295, and 304° C., respectively, (3) pulling through a water bath, (4) drying, (5) pelletizing, (6) redrying at 120° C. for 4-48 hours in a forced air oven, and (7) compression molding from compounded pellets into 2 mil films at 300° C. using a 30 second dwell hold without pressure, and a 30-second dwell hold with 35 kpsi pressure. […] The laminated sample plaques were exposed in the xenon-arc weatherometer as determined by ASTM G-26 Standard using Test Method B with alternate exposure to light and darkness and an intermittent exposure to water spray maintaining an atmosphere temperature of 63±3° C. and a relative humidity of 30±5% (Miami, Fla. conditions). Color (YI) was determined with a Macbeth Color Eye Colorimeter under Lab conditions with illuminate C, 2° observer, specular component excluded, and UV component included. […]

SMILES | T-10% (TGA, temperature required for 10% of the material to volatilize) [1] [°C] | % Weathering Resistance [2] [%] | Solubility in 2-Butanone [3] [g/100 g solvent] | Solubility in Toluene [3] [g/100 g solvent] | TGA T-10% value [1] | Volatility (in words) ([1]; TGA, compared with non-dimerized counterpart) | Stability imparted to the polycarbonate system (in words) ([2]; 0.35% in Lexan 121 PC) | Stability imparted (in words) [4] | Solubility characteristics (in words) ([3]; organic solvents)
O=C(c1ccccc1)c1ccc(OCCO)cc1O [Compound B, 2-hydroxy-4-(hydroxyethoxy)benzophenone] | 257 | – | – | – | – | – | – | – | –
O=C(c1ccccc1)c1ccc(OCCCCCCOc2ccc(C(=O)c3ccccc3)c(O)c2)cc1O [Compound E, 1,6-bis(3′hydroxy-4′-benzoylphenoxy)hexane] | 357 | 69 | 0.37 | 0.52 | – | – | – | – | –
CC(C)(c1ccccc1)c1cc(-n2nc3ccccc3n2)c(O)c(C(C)(C)c2ccccc2)c1 [Compound C, 2-(3′,5′-bis(α,α-dimethylbenzyl)-2′hydroxyphenyl)benzotriazole] | 312 | 71 | – | – | – | – | – | – | –
CC(C)(C)CC(C)(C)c1cc(Cc2cc(C(C)(C)CC(C)(C)C)cc(-n3nc4ccccc4n3)c2O)c(O)c(-n2nc3ccccc3n2)c1 [Compound F] | – | 59 | – | – | approximately 365 °C | – | – | – | –
O=C(OCCOc1ccc(C(=O)c2ccccc2)c(O)c1)OCCOc1ccc(C(=O)c2ccccc2)c(O)c1 [Compound D, {2-(3′-hydroxy-4′-benzoylphenoxy)ethyl}carbonate] | 350 | 71 | 2.69 | 1.26 | – | lower volatility than its non-dimerized counterpart | excellent stability | excellent stability | excellent solubility characteristics
CC(C)(C)CC(C)(C)c1ccc(O)c(-n2nc3ccccc3n2)c1 [Compound A, 2-(2′-hydroxy-5′-(1,1,3,3-tetramethylbutyl)phenyl)benzotriazole] | 245 | – | – | – | 245 °C | – | – | – | –
